# Reference: patent US6376666B1 (Nauchno-Issledovatelsky Institut Farmakologii Rossiiskoi …, priority 1994, dated 2002)
# Marks after values point to notes of the source that are not given here.
# What was measured:
# [1] = tested on: calcium chloride arrhythmia; test: calcium chloride arrhythmia in concious rats; type: in vivo; details: concious rats, given 2 min prior calcium chloride 250-300 mg/kg i.v.; for ED50: Rattus norvegicus, iv, read-out: Calcium chloride arrhythmia ED50 (mean effective dose)
# Protocol: In these experiments the outbred concious rats 180-200 g of weight were injected with 10% solution of calcium chloride in tail vein at dose range of 250-300 mg/kg.
# [2] = tested on: aconitine arrhythmia; test: animal or person; type: in vivo, rats; details: for LD50/ED50 (antiarrhythmic index): LD50 i.v. / ED50 aconitine arrhythmia; for Aconitine arrhythmia ED50: concious rats, i.v. 3 min prior aconitine; for ED50: Rattus norvegicus, iv, read-out: Aconitine arrhythmia ED50
# Protocol: Aconitine arrhythmia. The aconitine arrhythmia was induced in concious rats weighing 180-200 g by the injection in tail vein of the aconitine sulfate solution at dose range of […]. […] The tested compounds were administered i.v. 3 min prior aconitine injection. The ED50 value was calculated according to Litchfield's method.
# [3] = tested on: ventricular fibrillations; test: ventricular fibrillation, 7-min occlusion and reperfusion of coronary artery in anesthetized rats; type: in vivo
# Protocol: The experiments were conducted in male rats weighing 180-240 g and anesthetized with nembutal (60 mg/kg i.v.) with open chest and artificial respiration. The occlusion of the left coronary artery was performed 1-2 min after experiment beginning with following reperfusion after 7 min. During this period time according to literature data [Krzeminski T., Grzyb J., Kurcok A., Brus R.: Pol.J.Pharmacol., 1992, 44, Suppl., p.169-170] the maximum number of ventricular fibrillations (70-100%) were registered. The ECG in the 2nd standard lead was recorded in “Mingograph-81”. The number of ventricular fibrillations during occlusion and reperfusion periods, the life menacing arrhythmia (fibrillation+paroxysmal ventricular tachycardia) and total number of arrhythmias were calculated. The known antiarrhythmic drug bonnecor was used as the reference agent [Grigorieva E. K., Gorbunova V. V. in: “New antiarrhythmic drug—bonnecor (the pharmacology and clinical usage)”, M., 1993, p.64-67]. The compounds were injected i.v. at the following doses: bonnecor—1,0 mg/kg, compound IX—2,0 mg/kg, compound XX—1,0 mg/kg. The control animals were administered with the equivalent volume of physiological solution (1,0 ml/kg). 4 series of experiments were carried out in 80 rats. The results were assessed according to the method of point scale: the absence of arrhythmia—0 point, extrasystole—1 point, paroxysmal ventricular tachycardia—2 points, ventricular fibrillation—3 points, fibrillation observed during the occlusion of coronary vessel—4 points. For statistical analysis the Fisher's exact probability and Wilconson's methods were used.
# [Krzeminski T., Grzyb J., Kurcok A., Brus R.: Pol.J.Pharmacol., 1992, 44, Suppl., p.169-170] have shown that 7 min occlusion with following reperfusion of coronary artery in anesthetized rats produced the ventricular fibrillation (68-100%). Defibrotide and prostacycline decreased the number of fibrillations. We have studied the antifibrillator activity of some derivatives of 2-mercaptbenzimidazole in this model with disturbances of heart rhythm. Bonnecor (1,0 mg/kg) was used as the reference drug. It is well known that this agent produces apronouncedantifibrillatoryactivity [Grigorieva E. K., Gorbunova V. V. in: “New antiarrhythmic drug-bonnecor (the pharmacology and clinical usage)”, M., 1993, p.64-67].
# [4] = after i.v. injection
# [5] = tested on: cats; test: hemodynamics and activity of intact heart in cats under anesthesia; type: in vivo
# Protocol: The effects of compounds on the hemodynamics and activity of intact heart were studied in cats under anesthesia. The experiments were carried out under conditions of open chest. The phase curve of aortic blood flow was the main index of cardiac activity. The compounds were administered i.v. in physiological solution. The t-Student' test was used to estimate the statistical significance.
# [6] = tested on: adrenaline arrhythmia; test: adrenaline arrhythmia in concious rabbits; details: given 2 min before arrhythmogenic dose of adrenaline
# Protocol: Adrenaline arrhythmia. The 0,1% solution of adrenaline hydrochloride was injected to the marginal ear's vein of rabbit weighing 2,5-3,0 kg at dose ranging 120-150 mcg/kg which induced cardiac rhythm disturbances of two types.
# The tested compound was injected in 3 ml of distilled water 30 min after determination of arrhythmogenic dose of adrenaline and the ECG was recorded in 2nd standard lead. 2 min after administration of tested compound the arrhythmogenic dose of adrenaline was injected.
# [7] = in vivo; details: iv
# [8] = tested on: Balb/c mice; test: open-field test, Balb/c mice (passive type of emotional-stress reaction); type: in vivo; details: i.p., screening
# In short: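 Male mice, 20-22 g, dosed i.p. in water 30 min before a 3-min open-field test after 1 min in darkness; peripheral, central, rearing and total activity plus defecations recorded; Student t-test. Anxiolysis read as Balb/c activation, sedation as C57B1/6 inhibition.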
# [9] = 0.5 mg/kg i.v., 0.25 min after injection
# [10] = cats, 0.5 mg/kg i.v., after 2 min
# [11] = cats, 0.5 mg/kg i.v., after 5 min
# [12] = cats, 0.5 mg/kg i.v., after 10 min
# [13] = cats, 0.5 mg/kg i.v., after 20 min
# [14] = cats, 0.5 mg/kg i.v., after 30 min
structure (smiles),measurement,setting,value
"CCOC(=O)Nc1ccc2c(c1)N(C(=O)CN(C)C)c1ccccc1CC2 [Bonnecor, bonnecor, reference compound]",Calcium chloride arrhythmia ED50 (mean effective dose),[1],1.6 mg/kg
same,LD50/ED50 (antiarrhythmic index),[2],50
same,Aconitine arrhythmia ED50,[2],0.23 mg/kg
same,"antifibrillatory effect, in words","[3]; anesthetized rats i.v., bonnecor 1,0, IX 2,0, X (printed) 1,0 mg/kg",decreased the number of both the ventricular fibrillations and lethality hazardous arrhythmia
same,Number of VF (ventricular fibrillations),"[3]; anesthetized rats, 1 mg/kg i.v., 18 animals, control 15 of 24",6*
same,Number of LHA (lethality hazardous arrhythmia),"[3]; anesthetized rats, 1 mg/kg i.v., 18 animals, control 22 of 24",12*
same,Total numbers of arrhyt.,"[3]; anesthetized rats, 1 mg/kg i.v., 18 animals, control 24 of 24",16
same,Severity of arrhythmias,"[3]; anesthetized rats, 1 mg/kg i.v., 18 animals, control 66",36* points
same,Acute toxicity LD50,[4],11.5 mg/kg
"COc1ccc(CCN(C)CCCC(C#N)(c2ccc(OC)c(OC)c2)C(C)C)cc1OC (centres unmarked) [Verapamil, verapamil, reference compound]","Heart rate, change from basal level",[5]; [9],−13.7 ± 1.7 %
same,"Mean blood flow accelaration, change from basal level",[5]; [9],−32.5 ± 5.7 %
same,"Mean blood pressure, change from basal level",[5]; [9],−40.4 ± 7.0 %
same,"effect on heart rate, in words","[5]; cats i.v., VIII 1,0, IX 0,5 and 1,0, XX 1,0 and 2,0 mg/kg, XXIII 1.0, verapamil 0.5 mg/kg",induced the bradycardia
same,"Heart rate, change from basal level",[5]; [10],−11.8 ± 2.0 %
same,"Mean blood flow accelaration (aortic), change from basal level",[5]; [10],−15.5 ± 2.4 %
same,"Mean blood pressure, change from basal level",[5]; [10],−22.7 ± 8.1%
same,"Heart rate, change from basal level",[5]; [11],−12.3 ± 3.0 %
same,"Mean blood flow accelaration (aortic), change from basal level",[5]; [11],−8.1 ± 3.0 %
same,"Mean blood pressure, change from basal level",[5]; [11],−8.7 ± 6.3%
same,"Heart rate, change from basal level",[5]; [12],−8.1 ± 2.0 %
same,"Mean blood flow accelaration (aortic), change from basal level",[5]; [12],−9.9 ± 2.5 %
same,"Mean blood pressure, change from basal level",[5]; [12],−2.4 ± 2.6%
same,"Heart rate, change from basal level",[5]; [13],−5.4 ± 2.0 %
same,"Mean blood flow accelaration (aortic), change from basal level",[5]; [13],−8.7 ± 3.0%
same,"Mean blood pressure, change from basal level",[5]; [13],−8.5 ± 6.6%
same,"Heart rate, change from basal level",[5]; [14],−4.6 ± 3.4%
same,"Mean blood flow accelaration (aortic), change from basal level",[5]; [14],−7.0 ± 4.2%
same,"Mean blood pressure, change from basal level",[5]; [14],−11.6 ± 7.0%
same,ED50,[1],1.1 mg/kg
same,Adrenaline arrhythmia. Range of active doses,[6],0.3 to 1.0 mg/kg
"CC(C)NCC(O)COc1cccc2ccccc12 (centres unmarked) [Propranolol, propranolol, reference compound]",ED50,[1],0.8 mg/kg
same,Adrenaline arrhythmia. Range of active doses,[6],0.3 to 1.0 mg/kg
"CCN(CC)CCNC(=O)c1ccc(N)cc1 [Novocainamide, novocainamide, reference compound]",ED50,[1],50 mg/kg
same,LD50/ED50 (antiarrhythmic index),[2],2.7
same,ED50,[2],41 mg/kg
same,LD50,[7],110 mg/kg
"CCSc1nc2cc(C)c(C)cc2[nH]1 [Compound I, 2-Ethylthio-5,6-dimethylbenzimidazole]","effect on the behavior (locomotor activity) of Balb/c mice in open-field test, in words",[8],neither activatory nor inhibitory effects
same,melting point,,123 to 124 °C
"CCN(CC)CC(=O)Nc1c(C)cccc1C [Lidocaine, lidocaine]",ED50,[1],7.5 mg/kg
same,ED50,[2],7.8 mg/kg
same,Adrenaline arrhythmia. Range of active doses,[6],5.0 to 8.0 mg/kg
CCOC(=O)Nc1ccc2c(c1)N(C(=O)CCN1CCOCC1)c1ccccc1S2 [Etmosin],LD50/ED50 (antiarrhythmic index),[2],58.6
same,Aconitine arrhythmia ED50,[2],0.28 mg/kg
same,Acute toxicity LD50,[4],16.4 mg/kg
